According to patent US6902881B2, “Compounds and methods for regulating cell differentiation” (priority 2000, dated 2005):

Key:
[1] = system: control fertilized oocytes unexposed to UV light; experiment: Development of control embryos unexposed to UV light incubated with the compounds (dysmorphogen test); settings: control fertilized oocytes unexposed to UV light incubated with the compound
Method: Several hundred spawned eggs were fertilized in vitro and incubated at 16 to 18° C. […] The vegetal surfaces of some of these embryos were irradiated with one or the other sources of UV light within 10 min of fertilization for 20-30 min. […] The embryos were not disturbed, touched or tipped from the moment of fertilization, during UV irradiation or for the duration of development. […] A score of 5 defines a normal dorsal axis, 4 a microcephalic, 3 a cyclopic, 2 an anoptic, 1 an acephalic and 0 an adorsal embryo.
The biological activities of biliverdin and its derivatives were tested by adding each of them to the incubation solution of embryos after the termination of the UV light exposure to either 254 or 366 nm UV light and at selected time periods between T ƒfm=0.4-2.5. Final concentrations of biliverdin ranged from 0.05 to 5 μM in less than 1% ethanol. […] The extent of dorsal axis formation was analyzed by the morphological criteria described above.
Stage 1 embryos were exposed to UV-light source emitting at 366 nm (Mineralight UVSL-58, Ultraviolet Products, Inc., San Gabriel, Calif.) as described and then incubated in the presence of pure candidate DCD or commercially available biliverdin (Sigma-Aldrich, St. Louis, Mo.) at final concentrations from 0.05 to 1.2 μM in less than 1% ethanol. The concentrations were calculated using a molar extinction coefficient of 51,000. […]

[2] = system: alkaline phosphatase activity in HT 29 cells; experiment: Cellular alkaline phosphatase activity of HT 29 cells; assay type: cell-based, human; settings: HT 29, by day 20 of incubation
Method: Expression of differentiation markers. Carcinoembryogenic antigen in cell supernatants collected each three days was assayed by standard ELISA determinations using an IMX assay for quantitative measurement of the antigen. Cellular triacyl glycerol content was measured spectrophotometrically by enzymatic hydrolysis and analysis of the amount of glycerol released using a standard assay, Triglyceride (INT) 10 (Sigma Diagnostics). […] The fluorescence is detected at 450 nm with an excitation of 365 nm, using a Jobin Ivon-Spex Fluoro Max-2 fluorimeter. The alkaline phosphatase activity detected was expressed in units of μmol/mg protein/min. Alkaline phosphatase activity was assayed at the same periods as above but with different sets of cells. Treated and control cells were detached with trypsin and counted. One half of the cells were used to maintain the culture while the other half were used to measure alkaline phosphatase activity. […] Absorbance was detected at […] on a Varian Cary UV-Visible Spectrophotometer. The absorbance was compared against a standard curve created with bovine serum albumin from 2.5 to 25 μg/ml. […] The fluorescence generated is detected at 450 nm with an excitation of 365 nm, using a Jobin Ivon-Spex Fluoro Max-2 fluorimeter. […] The alkaline phosphatase actively detected was expressed in units of μmol product/mg protein/min.

[3] = system: Colon Adenocarcinoma (HT 29) cells; experiment: Cellular triacyl glycerol (TAG) content, colon adenocarcinoma; assay type: cell-based, human; settings: biliverdin 4 × 10^−7 M
Method: Expression of differentiation markers. Carcinoembryogenic antigen in cell supernatants collected each three days was assayed by standard ELISA determinations using an IMX assay for quantitative measurement of the antigen. Cellular triacyl glycerol content was measured spectrophotometrically by enzymatic hydrolysis and analysis of the amount of glycerol released using a standard assay, Triglyceride (INT) 10 (Sigma Diagnostics). Cellular alkaline phosphatase activity was determined by measuring the fluorescence change induced by the hydrolysis of 4-methylumbelliferylphosphate. The fluorescence is detected at 450 nm with an excitation of 365 nm, using a Jobin Ivon-Spex Fluoro Max-2 fluorimeter. The alkaline phosphatase activity detected was expressed in units of μmol/mg protein/min.

[4] = system: Normal Fibroblast (3T3-L1 fibroblasts); experiment: Cellular triacyl glycerol (TAG) content, normal fibroblast; assay type: cell-based; settings: 3T3-L1 fibroblasts with insulin
Method: Expression of differentiation markers. Carcinoembryogenic antigen in cell supernatants collected each three days was assayed by standard ELISA determinations using an IMX assay for quantitative measurement of the antigen. Cellular triacyl glycerol content was measured spectrophotometrically by enzymatic hydrolysis and analysis of the amount of glycerol released using a standard assay, Triglyceride (INT) 10 (Sigma Diagnostics). […] The fluorescence is detected at 450 nm with an excitation of 365 nm, using a Jobin Ivon-Spex Fluoro Max-2 fluorimeter. The alkaline phosphatase activity detected was expressed in units of μmol/mg protein/min. These compounds also affect the timing for the fat accumulation. After 9 days of incubation with insulin and bovine pituitary extract, but without biliverdin, the fat droplets in the cells are small and scattered diffusely throughout the cell. These globules continue to enlarge to fill most of the cytoplasmic space by day 14. In contrast, by day 7 the cells incubated in the presence of biliverdin already contain large, grouped and prominent droplets. While the triacyl glycerol content increases in both HT 29 and liposarcoma cells, the fat droplets in HT 29 cells are smaller than those that fill the cytoplasm of the liposarcoma cells. 3T3-L1 fibroblasts differentiate into adipocytes in the presence of insulin (Table VII). In the absence of biliverdin, this hormone increases the triacylglycerol content of 3T3-L1 fibroblasts by 3-fold relative to control. When biliverdin is added, a progressively greater content of triacyl glycerol is achieved at day 9. The increase is dependent on the biliverdin concentration. At the highest concentration used, 4×10^−7 M, there is a 5.8-fold increase of triacyl glycerol content over that of the undifferentiated fibroblasts (Table VII). This almost doubles the amount in the cells incubated with differentiation medium alone and is nearly as high as observed with troglitazone. At a lower biliverdin concentration, 10^−8 M, there is a 3.5-fold increase compared to control values. Remarkably, the amounts of biliverdin required to achieve the effects on proliferation, cell cycle and differentiation marker up-regulation, i.e. 10^−7-10^−06 M, are the same as those needed to re-establish the capacity of embryos depleted of the tetrapyrrole by treatment with UV-light to form a dorsal axis.

[5] = system: T-lymphoblast (LT) cells; experiment: Proliferation of T-lymphoblast cells; assay type: cell-based, mouse

## C=CC1=C(C)/C(=C/C2=NC(=C\c3[nH]c(/C=C4\NC(=O)C(C)=C4C=C)c(C)c3CCC(=O)O)/C(CCC(=O)O)=C2C)NC1=O [Biliverdin, biliverdin IXα]
[1]
  average DAI of control embryos: 5
[2]
  peak increase of alkaline phosphatase activity: fifteen-fold
[3]
  % Change of TAG: 154%
[3]; control 68
  TAG: 105 µg/10^6 cells
[4]; biliverdin 4×10^−7 M, day 9
  increase of triacyl glycerol content over undifferentiated fibroblasts: 5.8 fold
[4]; biliverdin 10^−8 M
  increase of triacyl glycerol content compared to control values: 3.5 fold
[5]
  time until proliferation ceases: within one day
[5]; still exposed
  time until cell division resumes at nearly the control rate: 3 to 4 days
